Experiments:
[1] = Intrinsic dissolution rate (static disc method, USP XXII apparatus No 2); format: physicochemical; conditions: 70:30 (w/w) with AVICEL PH102, dihydrochloride
Protocol: Drug bioavailability studies have shown that an intrinsic dissolution rate (IDR) lower than 0.1 mg/cm^2/min can often be predictive of a dissolution rate-limited absorption in humans. Thus, IDR is a predictive parameter of bioavailability. This parameter depends upon various physicochemical properties including, the chemical form (salt, solvate), the crystal form, the solubility and wettability. The determination of IDR was performed in the following way. The Form to be tested was homogeneously ground and mixed with microcrystalline cellulose AVICEL PH102 (dry binder which improves tableting properties). The substance:excipient mix ratio was 70:30 (w/w). Aliquots (500 mg) were compressed into pellets by compression until a final applied load of 10 tons in order to obtain a constant and known surface area of zero porosity. The dissolution experiments were carried out at 37° C. using 500 ml of aqueous media at three different pH values intended to cover the expected range of human gastrointestinal pH values, i.e. 1.2, 4.0 and 7.5. Uniform and reproducible haemodynamic conditions were obtained by carrying out the test with USP XXII apparatus N°2 (United States Pharmacopoeia, 1990) in which a paddle is used as stirring element (50 rpm) and the pellet assembly is placed at the bottom of the vessel (static disc method). Statistically assessed (p<0.05) linear portions of all replicate dissolution curves were selected for subsequent IDR calculation.

[2] = Storage stability of 1:1 (w/w) binary mixtures with D-sorbitol: sorbitol-efletirizine monoester by HPLC-UV; format: physicochemical; conditions: for sorbitol-efletirizine monoester, Relative % area: 1:1 (w/w) with D-sorbitol; for monoester formation (in words): pellet with D-sorbitol
Protocol: This is illustrated in the results of the following study, aimed at examining the stabilities of the two pseudopolymorphic forms in the presence of D-sorbitol during storage under stress temperature conditions, that is, in sealed vials at 40 or 60° C. In this study, HPLC analysis of several samples was performed: Form A, Form B, D-sorbitol and 1:1 (w/w) mixtures of Form A or Form B with D-sorbitol. Each sample was homogeneously ground and mixed. Aliquots (500 mg) were compressed into 13 mm diameter pellets at an applied load of 1 ton which a usual compression strength for pharmaceutical tablets. Each compact pellet was immediately ground into a fine powder, and an aliquot was stored in a tightly sealed glass vial at 40 or 60° C. Samples were analysed by HPLC after 0, 4, 16 and 24 weeks. p In a first series of analyses, HPLC/UV spectra were collected using a Kontron HPLC system type 300 fitted with a UV detector. The column used was Supercosil RP—ABZ 250×4.6 mm I.D. 5 μm particle size, and the mobile phase used consisted of an acetonitrile/water 25:75 (v/v) mixture, the water containing 770 mg/l ammonium acetate. Samples to be analysed were dissolved in acetonitrile/water 25:75 (v/v) at a concentration of 2 mg/ml, and 10 μl of these solutions were injected in the HPLC system. Upon comparing the HPLC spectra obtained for the individual components and for the binary mixtures, new peaks detected were considered indicative of an interaction with D-sorbitol. When present, these new peaks were quantified and further identified by HPLC/MS analysis, using a VG Quattro spectrometer coupled onto a Kontron HPLC system. In HPLC/MS, the new peaks observed for the binary mixtures were identified as a sorbitol-efletirizine monoester and dehydrated forms of a sorbitol-efletirizine monoester. The latter appeared after longer storage periods than the former. […] Relative quantification of monoester was performed by HPLC-UV analysis.

[3] = Storage stability of the pure forms under stress temperature, HPLC/UV; format: physicochemical; conditions: pure form, 40° or 60° C., 4, 16 or 24 weeks
Protocol: This is illustrated in the results of the following study, aimed at examining the stabilities of the two pseudopolymorphic forms in the presence of D-sorbitol during storage under stress temperature conditions, that is, in sealed vials at 40 or 60° C. In this study, HPLC analysis of several samples was performed: Form A, Form B, D-sorbitol and 1:1 (w/w) mixtures of Form A or Form B with D-sorbitol. Each sample was homogeneously ground and mixed. Aliquots (500 mg) were compressed into 13 mm diameter pellets at an applied load of 1 ton which a usual compression strength for pharmaceutical tablets. Each compact pellet was immediately ground into a fine powder, and an aliquot was stored in a tightly sealed glass vial at 40 or 60° C. Samples were analysed by HPLC after 0, 4, 16 and 24 weeks. p In a first series of analyses, HPLC/UV spectra were collected using a Kontron HPLC system type 300 fitted with a UV detector. The column used was Supercosil RP—ABZ 250×4.6 mm I.D. 5 μm particle size, and the mobile phase used consisted of an acetonitrile/water 25:75 (v/v) mixture, the water containing 770 mg/l ammonium acetate. Samples to be analysed were dissolved in acetonitrile/water 25:75 (v/v) at a concentration of 2 mg/ml, and 10 μl of these solutions were injected in the HPLC system. […] Pure D-sorbitol was not detected in HPLC/UV. […]

[4] = Clinical pharmacology study in urticaria, atopic dermatitis and prurit; format: in vivo; conditions: clinical pharmacology study (to be published)
[5] = biological target: histamine H1-receptor (Homo sapiens, UniProt P35367); conditions: in vitro; cited from earlier work
Sequence of histamine H1-receptor (P35367 whole entry, species assumed): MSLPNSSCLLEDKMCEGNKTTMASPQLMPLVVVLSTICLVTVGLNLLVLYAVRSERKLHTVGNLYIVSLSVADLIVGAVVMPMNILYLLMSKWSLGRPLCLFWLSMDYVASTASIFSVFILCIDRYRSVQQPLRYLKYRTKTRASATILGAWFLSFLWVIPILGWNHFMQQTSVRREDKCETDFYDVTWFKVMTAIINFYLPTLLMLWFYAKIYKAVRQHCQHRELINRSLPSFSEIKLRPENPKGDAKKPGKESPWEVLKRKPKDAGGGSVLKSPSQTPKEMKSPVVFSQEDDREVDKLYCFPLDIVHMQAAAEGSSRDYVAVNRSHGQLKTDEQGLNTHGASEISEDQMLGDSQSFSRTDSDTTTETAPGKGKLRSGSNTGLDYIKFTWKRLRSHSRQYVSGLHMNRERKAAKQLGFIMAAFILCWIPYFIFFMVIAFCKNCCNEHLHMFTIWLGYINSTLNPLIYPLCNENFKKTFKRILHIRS

[6] = 40° C., 4 weeks, dihydrochloride
[7] = 40° C., 16 weeks, dihydrochloride
[8] = 40° C., 24 weeks, dihydrochloride
[9] = 60° C., 0 weeks, dihydrochloride
[10] = 60° C., 4 weeks, dihydrochloride
[11] = 60° C., 16 weeks, dihydrochloride
[12] = 60° C., 24 weeks, dihydrochloride
[13] = storage at 60° C., dihydrochloride

Intrinsic dissolution rate ([1]; pH 1.2, 37° C.) [mg/cm^2/min]	Intrinsic dissolution rate ([1]; pH 4.0, 37° C.) [mg/cm^2/min]	Intrinsic dissolution rate ([1]; pH 7.5, 37° C.) [mg/cm^2/min]	sorbitol-efletirizine monoester, Relative % area ([2]; 40° C., 0 weeks) [Relative % area]	sorbitol-efletirizine monoester, Relative % area [2, 6] [Relative % area]	sorbitol-efletirizine monoester, Relative % area [2, 7] [Relative % area]	sorbitol-efletirizine monoester, Relative % area [2, 8] [Relative % area]	sorbitol-efletirizine monoester, Relative % area [2, 9] [Relative % area]	sorbitol-efletirizine monoester, Relative % area [2, 10] [Relative % area]	sorbitol-efletirizine monoester, Relative % area [2, 11] [Relative % area]	sorbitol-efletirizine monoester, Relative % area [2, 12] [Relative % area]	monoester formation (in words) ([2]; storage at 40° C.)	monoester formation (in words) [2, 13]	Structure (SMILES)	modifications of the HPLC/UV spectrograms after storage [3]	results in the treatment of urticaria, atopic dermatitis and prurit [4]	affinity for H1-receptors [5]	selectivity for H1-receptors [5]
5.04 ± 0.34	5.43 ± 0.32	4.52 ± 0.34	0	0.04	0.07	0.13	0.03	0.29	0.45	0.46	quite low	quite low	Cl.Cl.O=C(O)COCCN1CCN(C(c2ccc(F)cc2)c2ccc(F)cc2)CC1 [Form A, 2-[2-[4-[bis(4-fluorophenyl)methyl]-1-piperazinyl]ethoxy]acetic acid dihydrochloride]	no modifications of the spectrograms were observed			
4.05 ± 0.64	3.58 ± 0.50	3.31 ± 0.04	0	0.13	0.16	0.23	0.04	0.87	2.69	2.95	quite low	very significant	Cl.Cl.O=C(O)COCCN1CCN(C(c2ccc(F)cc2)c2ccc(F)cc2)CC1 [Form B, 2-[2-[4-[bis(4-fluorophenyl)methyl]-1-piperazinyl]ethoxy]acetic acid dihydrochloride]	no modifications of the spectrograms were observed			
													O=C(O)COCCN1CCN(C(c2ccc(F)cc2)c2ccc(F)cc2)CC1 [efletirizine, 2-[2-[4-[Bis(4-fluorophenyl)methyl]-1-piperazinyl]ethoxy]acetic acid]		unexpectedly good results	high affinity	selectivity
